This note sets out measurements from article PMC9975495, “Unveiling the therapeutic potential of cabozantinib-loaded poly D,L-lactic-co-glycolic acid and polysarcosine nanoparticles in inducing apoptosis and cytotoxicity in human HepG2 hepatocellular carcinoma cell lines and in vivo anti-tumor activity in SCID female mice” (Frontiers in Oncology, 2023).

The subject of one series is erythrocytes. The series is described as follows: Erythrocyte membrane integrity by lactate dehydrogenase release. In kind it is cell-based, human. Conditions: erythrocyte suspension, 10, 50 and 100 µg/mL, 8 hours. The protocol:
Erythrocytes produce lactate dehydrogenase (LDH), which may be measured photometrically using the LDH test kit/Lactate Dehydrogenase Assay Kit (Colorimetric) (ab102526) ([50]). For the LDH investigation, blood was obtained from the neighbouring blood bank. The erythrocyte suspension was made according to the methodology described in our earlier research. In 1mL of erythrocyte solution was treated with specific amount of Cabozantinib (CNB), PLGA-PSar-encapsulated Cabozantinib nanoparticles (CNB-PLGA-PSar-NPs), and placebo (PLGA-PSar-NPs) ([51]). Positive control sample was created by diluting erythrocyte suspension with 1% Triton-X-100, whereas negative control sample was created by diluting erythrocyte suspension with normal saline solution. […] LDH was detected at 500nm after a ready-to-use LDH solution was added to the supernatant. The total of LDH was calculated using the following formula. […]
Where, A sample stands for Cabozantinib, PLGA-PSar-encapsulated Cabozantinib nanoparticles (CNB-PLGA-PSar-NPs) incubated erythrocytes absorbance, A negative control indicates, erythrocytes absorbance of sample, which was pre-treated with normal saline solution. The A standard indicates the absorbance of erythrocytes sustention, which were pre-treated with 150/UL Lactate dehydrogenase (LDH) enzyme. […]

Series [1] in a line: Pharmacokinetic study, plasma by RP-HPLC. The class given is in vivo, Male Albino Wister rats. The following applies: rats, 20 mg/kg intravenous. The protocol:
06 Male Albino Wister rats (200 to 250 g) are separated into two groups (n=3) for the purpose of conducting pharmacokinetic studies ([55]). For up to 72 hours, a comparative plasma concentration-time profile of Cabozantinib (CNB), CNB-PLGA-PSar-NPs was analysed. […] Using the tail vein of rats, 500µL of blood samples were collected at 0, 0.5, 1, 2, 4, 8, 16, 24, 48, and 72 hours from three animals in each group. Blood samples were stored in a microcentrifuge tube and centrifuged at 7,500 rpm for 30 minutes at 25°C to separate supernatant plasma. The collected samples were analysed using the RP-HPLC system and stored at -80°C (1290 Infinity II LC System, Agilent, USA). Using kinetica 5.0 pharmacokinetics software, the obtained RP-HPLC variables were interpreted in terms of their pharmacokinetics (Thermo Fisher Scientific, Yokohama)

A further series deals with Hep Par 1. The experiment in a line: Immunohistochemistry of xenograft tumour sections. The class given is in vivo, SCID female mice. Conditions: five 400 µm × 400 µm zones. As to the method:
Paraffin 10µm thick sections of xenograft HePG2 cancer cell tissues embedded in liver parenchyma blocks. The blocks were […] in a 10 mM citrate buffer solution and autoclaved for 20 minutes to extract antigens. After heating the section slide blocks, they were allowed to cool for 1.5 hours at room temperature. The sectioned slides were then incubated overnight at 4°C with a primary antibody against Hepatocyte specific antigen (Hep Par 1) (91091816- SK-HEP-1, Sigma-Aldrich, Bengaluru, India). Further, section slides were incubated with enzyme-linked immunosorbent assay (ELISA) horseradish peroxidase (HRP) conjugated Goat anti-Rabbit IgG (H+L) secondary antibody (Thermo Fisher Scientific, Vadodara, Gujarat) for 1hr followed by treatment with 120µL […] (Dako). For analysing the results of Immunohistochemistry, five square zones […] were measured and averaged for the number of stained cells in each sectioned slide. Using GraphPad Prism 9 (San Diego, California) and student t-test statistical analyses were performed.

Series [2] is described as follows: Tissue distribution studies. The following applies: 20 mg/kg i.v. bolus, killed eight hours later. In kind it is in vivo, SCID mice. The text has this:
Tissue distribution studies in mice with SCID are required in anti-liver cancer activity to determine the distribution and concentration of a drug within the body after administration ([54]). This information is important for understanding how the drug is metabolized and cleared by the body, as well as for determining appropriate dosing regimens. Additionally, tissue distribution studies can help to identify any potential toxicities or side effects associated with the drug in specific organs or tissues. In the case of anti-liver cancer activity, knowing the distribution of the drug in the liver would be particularly important to ensure the drug is reaching its target site and effectively inhibiting the growth of cancer cells. The tissue distribution of a bolus dosage of 20 mg/kg i.v. Cabozantinib (CNB), CNB-PLGA-PSar-NPs was documented. The greatest concentration of CNB was found in liver parenchymal hepatocyte tissue. […] The increased affinity of CNB in the liver and pancreas enables the medication molecule to effectively treat liver cancer.
The tissue distribution was studied by separating 18 SCID mice into three groups (each group had six mice). The drug and its Nano formulations were administered intravenously (i.v.) at a bolus dose of 20 mg/kg. Groups of mice were given a dosage and then killed eight hours later. […] The samples were analysed using RP-UHPLC (Dionex Ultimate, 3000). […]

The test system of series [3] is HePG2 cells Xenograft model. The experiment in a line: In vivo anti-tumour efficacy study, HePG2 xenograft. Conditions: 20 mg/kg i.v. once weekly, 21 days. On the set-up: species or system SCID female mice. As to the method:
The SCID female mice of 8-10 weeks old were used in the in vivo effectiveness study ([53]). SCID stands for severe combined immunodeficiency disorder. Mice were housed in individually ventilated cages with pelleted food, a 12-hour/12-hour dark-light cycle, and unrestricted access to water (supplied ad libitum) in a climate-controlled setting with a temperature range of 25°C ± 3°C. The National Institutes of Health's guidelines for the care and use of animals were followed when conducting all animal experiments, which included those at Animal House of […], India. These facilities also complied with CPCSEA (Committee for the Purpose of Control and Supervision of Experiments on Animals) regulations. Mice were subcutaneously injected with cultured HePG2 cells (5x10^6 cells) in 200μL of RPMI 1640 with 33% Corning Matrigel Basement Membrane Matrix (Sigma-Aldrich, India). […] A digital electronic calliper was used to measure the tumor's size twice a week. To assess toxicity, body weight was monitored twice weekly. Tumour volume was calculated as […]. The SCID female mice were given thiopental anaesthesia prior to being killed by cervical dislocation. Before being implanted in paraffin wax, liver tissues and tumour bulbs from the descending liver were collected and preserved overnight in 10% formalin (CH2O) with a pH 7.4 phosphate buffer solution.

The mark [4] stands for this setting: male, Albino Wister, rat, plasma.

In the case of Triton X 100, the “LDH release / erythrocyte membrane integrity” value in the series on erythrocytes is recorded as “exceptionally significant LDH release”.
As to `COc1cc2nccc(Oc3ccc(NC(=O)C4(C(=O)Nc5ccc(F)cc5)CC4)cc3)c2cc1OC` [CNB, Cabozantinib], in series [1] (setting [4]), the C0 worked out at 215 ± 16.3 ng/mL, the highest level (Cmax) was 241 ± 34.2 ng/mL, the MRT came out at 7.45 ± 0.24 h and the Vd came out at 1.522 ± 0.00154 L. In series [1] (setting [4]), this molecule showed a clearance of 2.08 mL/min. The molecule also returned a t1/2 in series [1] of 5.21 ± 0.18 h. The “Hep Par 1 labelling index” value in the series on Hep Par 1 was 9.22 ± 1.67. In addition, the tissue distribution entry in series [2] is given as “more widely distributed in the parenchymal hepatocyte tissue”. In addition, in series [3], the “reduction in the size of the tumour compared to the vehicle control” value turned out to be 60.3%. Besides, the “LDH release / erythrocyte membrane integrity” value with erythrocytes is “would not alter the integrity of erythrocyte membranes”.

A word on the Cmax: it is the maximum level reached in the sampled fluid or tissue. Broadly, the MRT is a mean duration of stay, worked out from the concentration-time curve. A word on the Vd: it is the apparent volume that relates the amount in the body to the concentration in plasma or blood. Read a low Vd as confinement near the circulation. Usually clearance stands for the volume of plasma or blood freed of the substance per unit of time. A lower clearance goes with a low capacity for elimination.
